From patent publication US20100273876A1, “ANTIBACTERIAL FORMULATION COMPRISING A DIALKYL SULPHOSUCCINATE AND A CARBANILIDE ANTIBACTERIAL AGENT” (priority 2007, published 2010)

Tests used:
Experiment in all cases: Agar dilution MIC assay
Assay type in all cases: cell-based, Propionibacterium acnes
[1] = test system: P. acnes PRP-003; settings: P. acnes PRP-003 (Tet)
Experimental: (§1) The propionibacteria were cultured and maintained on Wilkins-Chalgren Anaerobe Medium (agar and broth) at pH 6.0; all cultures were incubated anaerobically at 37° C. for 72 hours.
(§2) This is a standard international method for quantitatively assessing the antimicrobial activity of a compound in a solid medium. The test compound was prepared to 40× the highest concentration required (eg, 10 mg/ml for a final concentration of 250 μg/ml) and a series of doubling dilutions were performed in a suitable solvent. A set amount of these antimicrobial stock solutions was then added to molten agar medium (ca. 55° C.), mixed thoroughly, poured into sterile Petri dishes and allowed to cool/set.
(§3) A Multipoint™ Inoculator (AQS Manufacturing Ltd, UK) was used to inoculate the plates by spotting the inocula onto the surface of the agar, delivering approximately 1 to 2 μl per spot (yielding 10^5 CFU(colony forming units) per spot).
(§4) The plate(s) were then incubated under the conditions described above, following which they were examined visually for signs of bacterial growth. The MIC value was ascertained when there was a marked reduction in, or total loss of, growth on the test plate at the lowest concentration as compared to that of the growth on the control plate.
(§5) The assays were conducted in duplicate and included a positive control (culture medium, diluting solvent and inoculum).

[2] = test system: P. acnes PRP-010; settings: P. acnes PRP-010 (MLSK)
Experimental: as §1, §2, §3, §4, §5

[3] = test system: P. acnes PRP-004; settings: P. acnes PRP-004 (Tet)
Experimental: as §1, §2, §3, §4, §5

[4] = test system: P. acnes PRP-039; settings: P. acnes PRP-039 (Tet/MLS)
Experimental: as §1, §2, §3, §4, §5

[5] = test system: P. acnes PRP-008; settings: P. acnes PRP-008 (Clin)
Experimental: as §1, §2, §3, §4, §5

[6] = test system: P. acnes PRP-053; settings: P. acnes PRP-053 (Tet/MLS)
Experimental: as §1, §2, §3, §4, §5

[7] = test system: P. acnes PRP-017; settings: P. acnes PRP-017 (MLS)
Experimental: as §1, §2, §3, §4, §5

[8] = test system: P. acnes PRP-102; settings: P. acnes PRP-102 (Tet/MLS)
Experimental: as §1, §2, §3, §4, §5

[9] = test system: P. acnes PRP-101; settings: P. acnes PRP-101 (Tet/MLS)
Experimental: as §1, §2, §3, §4, §5

[10] = test system: P. acnes PRP-059; settings: P. acnes PRP-059 (MLS)
Experimental: as §1, §2, §3, §4, §5

[11] = test system: P. acnes PRP-046; settings: P. acnes PRP-046 (resistance None)
Experimental: as §1, §2, §3, §4, §5

[12] = test system: P. acnes PRP-007; settings: P. acnes PRP-007 (Clin)
Experimental: as §1, §2, §3, §4, §5

[13] = test system: P. acnes PRP-002; settings: P. acnes PRP-002 (Tet/MLS)
Experimental: as §1, §2, §3, §4, §5

## dioctyl sodium sulphosuccinate [DOSS]
[1]
  MIC: 15.6 µg/mL
[2]
  MIC: 15.6 µg/mL
[3]
  MIC: 15.6 µg/mL
[4]
  MIC: 15.6 µg/mL
[5]
  MIC: 15.6 µg/mL
[6]
  MIC: 15.6 µg/mL
[7]
  MIC: 15.6 µg/mL
[8]
  MIC: 31.25 µg/mL
[9]
  MIC: 15.6 µg/mL
[10]
  MIC: 15.6 µg/mL
[11]
  MIC: 15.6 µg/mL
[12]
  MIC: 15.6 µg/mL
[13]
  MIC: 15.6 µg/mL
